Measured values reported in patent publication US8247394B2 (Cempra Pharmaceuticals Inc., priority 2010, dated 2012).
≈ marks a conversion by molar mass, not a printed value. Read-outs that look alike come from different tables or passages of the source. Values belong to the molecule of their own block, whether it stands above or below them.

Key:
N. gonorrhoeae = assay: Reference agar dilution susceptibility testing (CLSI M07-A8) of N. gonorrhoeae clinical isolates; assay type: cell-based, Neisseria gonorrhoeae; conditions: for % by category, R (resistant); resistance rate / % by category, S (susceptible): CLSI criteria, 35 strains
Protocol: Thirty-five clinical isolates of N. gonorrhoeae collected in the United States (USA), Asia and European medical centers since 2005 were tested using reference agar dilution methods per Clinical and Laboratory Standards Institute (CLSI) M07-A8 (Clinical and Laboratory Standards Institute. 2009. M07-A8, Methods for dilution antimicrobial susceptibility tests for bacteria that grow aerobically; approved standard—eighth edition. Wayne, Pa.: CLSI) and M100-S20 documents (Clinical and Laboratory Standards Institute. 2010. M100-S20, Performance standards for antimicrobial susceptibility testing, 20th informational supplement. Wayne, Pa.: CLSI). […] Quality control (QC) ranges and interpretive criteria for comparator compounds were as published by CLSI (Clinical and Laboratory Standards Institute. 2010. M100-S20, Performance standards for antimicrobial susceptibility testing, 20th informational supplement. Wayne, Pa.: CLSI).

C. trachomatis = assay: In vitro susceptibility testing of C. trachomatis in cell culture using HEp-2 cells (MIC/MBC); assay type: cell-based, Chlamydia trachomatis; conditions: for MBC / MIC90 / MIC: Chlamydia trachomatis
Protocol: Chlamydia isolates: 10 isolates of C. trachomatis in order to determine the MIC90 and MBC90 for each antibiotic.
C. trachomatis: 10 isolates of C. trachomatis, including standard isolates from the ATCC (E-BOUR, F-IC-CAL3, C-HAR32, J-UW-36, L2434, D-UW-57kx, B-HAR-36) and recent clinical isolates N18 (cervical), N19 (cervical), 7015 (infant eye).
In vitro susceptibility testing: Susceptibility testing of C. trachomatis was performed in cell culture using HEp-2 cells grown in 96-well microtiter plates. Each well was inoculated with 0.1 ml of the test strain diluted to yield 10^3 to 10^4 IFU/per ml, centrifuged at 1,700×g for 1 hr and incubated at 35° C. for 1 hr. Wells were then aspirated and overlaid with 0.2 ml of medium containing 1 μg of cycloheximide per ml and serial two fold dilutions of the test drug. Duplicate plates were inoculated. After incubation at 35° C. for 48-72 hrs, cultures were fixed and stained for inclusions with fluorescein-conjugated antibody to the lipopolysaccharide genus antigen ([…]™, Kallestad Diagnostics, Chaska, Minn.). The minimal inhibitory concentration (MIC) was the lowest antibiotic concentration at which no inclusions are seen. The minimal bactericidal concentration (MBC) was determined by aspirating the antibiotic containing medium, washing wells twice with phosphate buffered saline and adding antibiotic-free medium. Cultures were frozen at −70° C., thawed, passed onto new cells, incubated for 72 hrs then fixed and stained as above. The MBC was the lowest antibiotic concentration that results in no inclusions after passage. All tests were run in triplicate.
Ten isolates of C. trachomatis including standard isolates from the ATCC (E-BOUR, F-IC-CAL3, C-HAR32, J-UW-36, L2434, D-UW-57kx, B-HAR-36) and recent clinical isolates N18 (cervical), N19 (cervical), 7015 (infant eye) were selected for study. Susceptibility testing was performed in cell culture using HEp-2 cells (Roblin et. al. Antimicrob. Agents Chemother. 42:194-196 (1998)) at State University of New York, Downstate Medical Center (Brooklyn, N.Y., USA).

[1] = blood; cited from earlier work
[2] = Neisseria gonorrhoeae, 35 N. gonorrhoeae strains, read-out: MIC50
[3] = number of isolates among 35 strains
[4] = 10 strains of C. trachomatis, read-out: MBC90

Molecule: CC(=O)O[C@H]1C[C@@]2(C)[C@@H](C[C@@H](O)[C@H]3[C@@]4(C)CC[C@@H](O)[C@@H](C)[C@@H]4CC[C@@]32C)/C1=C(\CCC=C(C)C)C(=O)[O-].[Na+] [CEM 102, Sodium fusidate]
MIC (C. trachomatis; strain 7015): 0.5 µg/mL
MBC (C. trachomatis; strain 7015, read-out: MBC): 0.5 µg/mL
MIC (C. trachomatis; strain Ct D): 0.5 µg/mL
MBC (C. trachomatis; strain Ct D, read-out: MBC): 0.5 µg/mL
MIC (C. trachomatis; strain Ct E): 0.5 µg/mL
MBC (C. trachomatis; strain Ct E, read-out: MBC): 0.5 µg/mL
MIC (C. trachomatis; strain Ct F): 0.5 µg/mL
MBC (C. trachomatis; strain Ct F, read-out: MBC): 0.5 µg/mL
MIC (C. trachomatis; strain Ct H): 0.5 µg/mL
MBC (C. trachomatis; strain Ct H, read-out: MBC): 0.5 µg/mL
MIC (C. trachomatis; strain Ct I): 0.5 µg/mL
MBC (C. trachomatis; strain Ct I, read-out: MBC): 0.5 µg/mL
MIC (C. trachomatis; strain Ct J): 0.5 µg/mL
MBC (C. trachomatis; strain Ct J, read-out: MBC): 0.5 µg/mL
MIC (C. trachomatis; strain L2): 0.25 µg/mL
MBC (C. trachomatis; strain L2, read-out: MBC): 0.25 µg/mL
MIC (C. trachomatis; strain N18): 0.25 µg/mL
MBC (C. trachomatis; strain N18, read-out: MBC): 0.25 µg/mL
MIC (C. trachomatis; strain N19): 0.125 µg/mL
MBC (C. trachomatis; strain N19, read-out: MBC): 0.125 µg/mL
MIC90 (C. trachomatis; 10 strains of C. trachomatis): 0.5 µg/mL
MBC (C. trachomatis; [4]): 0.5 µg/mL

Molecule: CO/N=C(\C(=O)N[C@@H]1C(=O)N2C(C(=O)O)=C(CSc3nc(=O)c(=O)[nH]n3C)CS[C@H]12)c1csc(N)n1 [Ceftriaxone, ceftriaxone]
% by category, R (resistant); resistance rate (N. gonorrhoeae): 0.0%
% by category, S (susceptible) (N. gonorrhoeae): 100.0/— %
Occurrences at MIC 0.015 μg/ml (N. gonorrhoeae; [3]): 6
Occurrences at MIC 0.03 μg/ml (N. gonorrhoeae; [3]): 6
Occurrences at MIC 0.06 μg/ml (N. gonorrhoeae; [3]): 3
Occurrences at MIC 0.12 μg/ml (N. gonorrhoeae; [3]): 2
Occurrences at MIC ≦0.008 μg/ml (N. gonorrhoeae; [3]): 18

Molecule: CC(=O)O[C@H]1C[C@@]2(C)[C@@H](C[C@@H](O)[C@H]3[C@@]4(C)CC[C@@H](O)[C@@H](C)[C@@H]4CC[C@@]32C)/C1=C(\CCC=C(C)C)C(=O)O [Fusidic acid]
protein binding [1]: 95-97%
Occurrences at MIC 0.25 μg/ml (N. gonorrhoeae): 12
Occurrences at MIC 0.5 μg/ml (N. gonorrhoeae): 17
Occurrences at MIC 1 μg/ml (N. gonorrhoeae): 5
Occurrences at MIC 2 μg/ml (N. gonorrhoeae): 1
MIC90 (N. gonorrhoeae; Neisseria gonorrhoeae, 35 N. gonorrhoeae strains): 1 µg/mL (≈ 1.94 µM)
MIC50 (N. gonorrhoeae; [2]): 0.5 µg/mL (≈ 0.968 µM)
Concentration at which active against all strains tested (N. gonorrhoeae; all N. gonorrhoeae strains tested): ≤ 2 µg/mL
MBC Range (C. trachomatis; 10 strains): 0.12 to 0.5 µg/mL
MIC 90% (C. trachomatis; 10 strains): 0.5 µg/mL (≈ 0.968 µM)
MIC Range (C. trachomatis; 10 strains): 0.12 to 0.5 µg/mL
MIC range (C. trachomatis; 10 strains): 0.12 to 0.5 µg/mL
MBC (C. trachomatis; 10 strains, read-out: MBC 90%): 0.5 µg/mL (≈ 0.968 µM)
MIC90 (C. trachomatis; 10 strains of C. trachomatis): 0.5 µg/mL (≈ 0.968 µM)
MBC (C. trachomatis; [4]): 0.5 µg/mL (≈ 0.968 µM)

Molecule: CN(C)[C@@H]1C(O)=C(C(N)=O)C(=O)[C@@]2(O)C(O)=C3C(=O)c4c(O)cccc4[C@@](C)(O)[C@H]3C[C@@H]12 [Tetracycline, tetracycline]
% by category, R (resistant); resistance rate (N. gonorrhoeae): 34.3%
% by category, S (susceptible) (N. gonorrhoeae): 22.9%
MIC50 (N. gonorrhoeae; [2]): 1 µg/mL (≈ 2.25 µM)
Occurrences at MIC 0.12 μg/ml (N. gonorrhoeae; [3]): 6
Occurrences at MIC 0.25 μg/ml (N. gonorrhoeae; [3]): 2
Occurrences at MIC 0.5 μg/ml (N. gonorrhoeae; [3]): 8
Occurrences at MIC 1 μg/ml (N. gonorrhoeae; [3]): 7
Occurrences at MIC 2 μg/ml (N. gonorrhoeae; [3]): 7
Occurrences at MIC 4 μg/ml (N. gonorrhoeae; [3]): 1
Occurrences at MIC >4 μg/ml (N. gonorrhoeae; [3]): 4

Molecule: penicillin
MIC50 (N. gonorrhoeae; 35 N. gonorrhoeae strains): 1 µg/mL
% by category, R (resistant); resistance rate (N. gonorrhoeae): 45.7%
% by category, S (susceptible) (N. gonorrhoeae): 22.9%
Occurrences at MIC 0.015 μg/ml (N. gonorrhoeae; [3]): 1
Occurrences at MIC 0.03 μg/ml (N. gonorrhoeae; [3]): 4
Occurrences at MIC 0.06 μg/ml (N. gonorrhoeae; [3]): 3
Occurrences at MIC 0.25 μg/ml (N. gonorrhoeae; [3]): 2
Occurrences at MIC 0.5 μg/ml (N. gonorrhoeae; [3]): 4
Occurrences at MIC 1 μg/ml (N. gonorrhoeae; [3]): 5
Occurrences at MIC 2 μg/ml (N. gonorrhoeae; [3]): 6
Occurrences at MIC 4 μg/ml (N. gonorrhoeae; [3]): 4
Occurrences at MIC >4 μg/ml (N. gonorrhoeae; [3]): 6

Second part, led by results:

MIC50 (N. gonorrhoeae; [2]): 0.25 µg/mL (≈ 0.334 µM)
Occurrences at MIC 0.06 μg/ml (N. gonorrhoeae; [3]): 1
Occurrences at MIC 0.12 μg/ml (N. gonorrhoeae; [3]): 15
Occurrences at MIC 0.25 μg/ml (N. gonorrhoeae; [3]): 12
Occurrences at MIC 0.5 μg/ml (N. gonorrhoeae; [3]): 5
Occurrences at MIC 1 μg/ml (N. gonorrhoeae; [3]): 1
Occurrences at MIC 2 μg/ml (N. gonorrhoeae; [3]): 1
MIC 90% (C. trachomatis; 10 strains): 0.12 µg/mL (≈ 0.16 µM)
MIC Range (C. trachomatis; 10 strains): 0.015 to 0.12 µg/mL
MIC90 (C. trachomatis; 10 strains of C. trachomatis): 0.12 µg/mL (≈ 0.16 µM)
Molecule: CC[C@H]1OC(=O)[C@H](C)[C@@H](O[C@H]2C[C@@](C)(OC)[C@@H](O)[C@H](C)O2)[C@H](C)[C@@H](O[C@@H]2O[C@H](C)C[C@H](N(C)C)[C@H]2O)[C@](C)(O)C[C@@H](C)CN(C)[C@H](C)[C@@H](O)[C@]1(C)O [Azithromycin, azithromycin]
% by category, R (resistant); resistance rate (N. gonorrhoeae): 0.0%
MBC Range (C. trachomatis; 10 strains): 0.015 to 0.12 µg/mL
MBC (C. trachomatis; 10 strains, read-out: MBC 90%): 0.12 µg/mL (≈ 0.16 µM)

MIC 90% (C. trachomatis; 10 strains): 0.06 µg/mL (≈ 0.0802 µM)
MIC Range (C. trachomatis; 10 strains): 0.015 to 0.12 µg/mL
MIC90 (C. trachomatis; 10 strains of C. trachomatis): 0.06 µg/mL (≈ 0.0802 µM)
Molecule: CC[C@H]1OC(=O)[C@H](C)[C@@H](O[C@H]2C[C@@](C)(OC)[C@@H](O)[C@H](C)O2)[C@H](C)[C@@H](O[C@@H]2O[C@H](C)C[C@H](N(C)C)[C@H]2O)[C@](C)(OC)C[C@@H](C)C(=O)[C@H](C)[C@@H](O)[C@]1(C)O [Clarithromycin, clarithromycin]
MBC Range (C. trachomatis; 10 strains): 0.015 to 0.12 µg/mL
MBC (C. trachomatis; 10 strains, read-out: MBC 90%): 0.06 µg/mL (≈ 0.0802 µM)

MIC 90% (C. trachomatis; 10 strains): 0.06 µg/mL (≈ 0.135 µM)
MIC Range (C. trachomatis; 10 strains): 0.015 to 0.06 µg/mL
MIC90 (C. trachomatis; 10 strains of C. trachomatis): 0.06 µg/mL (≈ 0.135 µM)
Molecule: C[C@H]1c2cccc(O)c2C(=O)C2=C(O)[C@]3(O)C(=O)C(C(N)=O)=C(O)[C@@H](N(C)C)[C@@H]3[C@@H](O)[C@@H]21 [Doxycycline, doxycycline]
MBC Range (C. trachomatis; 10 strains): 0.015 to 0.06 µg/mL
MBC (C. trachomatis; 10 strains, read-out: MBC 90%): 0.06 µg/mL (≈ 0.135 µM)

MIC 90% (C. trachomatis; 10 strains): 0.06 µg/mL (≈ 0.0739 µM)
MIC Range (C. trachomatis; 10 strains): 0.015 to 0.25 µg/mL
MIC90 (C. trachomatis; 10 strains of C. trachomatis): 0.06 µg/mL (≈ 0.0739 µM)
Molecule: CC[C@H]1OC(=O)[C@H](C)C(=O)[C@H](C)[C@@H](O[C@@H]2O[C@H](C)C[C@H](N(C)C)[C@H]2O)[C@](C)(OC)C[C@@H](C)C(=O)[C@H](C)[C@H]2N(CCCCn3cnc(-c4cccnc4)c3)C(=O)O[C@]12C [Telithromycin, telithromycin]
MBC Range (C. trachomatis; 10 strains): 0.015 to 0.25 µg/mL
MBC (C. trachomatis; 10 strains, read-out: MBC 90%): 0.06 µg/mL (≈ 0.0739 µM)
